Experimental data: PMC5333991 (Journal of biomolecular screening, 2009)

Experiments:
[1] = molecular target: CYP3A4 (Homo sapiens, UniProt P08684); assay: fluorogenic CYP450 inhibition assay; type: biochemical
[2] = molecular target: CYP2C9 (Homo sapiens, UniProt P11712); assay: in vitro
Sequence of CYP2C9 (P11712 whole entry): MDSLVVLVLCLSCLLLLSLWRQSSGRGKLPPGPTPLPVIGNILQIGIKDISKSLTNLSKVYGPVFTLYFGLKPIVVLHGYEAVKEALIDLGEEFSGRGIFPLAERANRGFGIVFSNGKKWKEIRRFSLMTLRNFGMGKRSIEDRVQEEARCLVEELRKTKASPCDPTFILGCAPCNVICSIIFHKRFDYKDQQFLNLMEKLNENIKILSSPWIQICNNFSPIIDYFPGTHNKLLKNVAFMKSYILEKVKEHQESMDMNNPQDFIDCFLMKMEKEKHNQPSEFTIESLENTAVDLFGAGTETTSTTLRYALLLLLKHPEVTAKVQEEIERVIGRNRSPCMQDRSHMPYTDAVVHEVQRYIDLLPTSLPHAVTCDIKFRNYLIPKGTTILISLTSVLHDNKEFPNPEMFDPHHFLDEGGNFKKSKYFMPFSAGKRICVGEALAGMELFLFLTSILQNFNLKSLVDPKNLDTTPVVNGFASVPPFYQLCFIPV
Sequence of CYP2C9 (P16435 2-677 partner): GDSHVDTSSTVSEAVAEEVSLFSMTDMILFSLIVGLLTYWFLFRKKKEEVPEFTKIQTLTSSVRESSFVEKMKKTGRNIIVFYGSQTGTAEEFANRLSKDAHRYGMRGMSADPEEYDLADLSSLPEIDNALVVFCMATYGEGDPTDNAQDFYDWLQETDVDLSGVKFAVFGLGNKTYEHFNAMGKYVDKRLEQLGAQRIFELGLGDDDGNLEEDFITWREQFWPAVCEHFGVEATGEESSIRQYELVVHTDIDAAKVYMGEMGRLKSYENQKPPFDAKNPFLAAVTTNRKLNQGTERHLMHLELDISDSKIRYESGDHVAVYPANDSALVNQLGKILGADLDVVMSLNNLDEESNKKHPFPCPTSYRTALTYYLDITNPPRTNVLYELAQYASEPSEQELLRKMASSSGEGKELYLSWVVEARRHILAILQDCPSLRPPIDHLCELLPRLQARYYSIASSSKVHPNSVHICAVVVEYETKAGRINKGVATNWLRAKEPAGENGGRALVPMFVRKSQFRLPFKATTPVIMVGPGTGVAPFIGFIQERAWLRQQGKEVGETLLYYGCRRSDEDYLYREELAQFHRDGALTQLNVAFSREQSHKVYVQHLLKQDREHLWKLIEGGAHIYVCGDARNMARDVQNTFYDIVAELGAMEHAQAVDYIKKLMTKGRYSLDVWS

Sequence of CYP3A4 (P08684 2-503): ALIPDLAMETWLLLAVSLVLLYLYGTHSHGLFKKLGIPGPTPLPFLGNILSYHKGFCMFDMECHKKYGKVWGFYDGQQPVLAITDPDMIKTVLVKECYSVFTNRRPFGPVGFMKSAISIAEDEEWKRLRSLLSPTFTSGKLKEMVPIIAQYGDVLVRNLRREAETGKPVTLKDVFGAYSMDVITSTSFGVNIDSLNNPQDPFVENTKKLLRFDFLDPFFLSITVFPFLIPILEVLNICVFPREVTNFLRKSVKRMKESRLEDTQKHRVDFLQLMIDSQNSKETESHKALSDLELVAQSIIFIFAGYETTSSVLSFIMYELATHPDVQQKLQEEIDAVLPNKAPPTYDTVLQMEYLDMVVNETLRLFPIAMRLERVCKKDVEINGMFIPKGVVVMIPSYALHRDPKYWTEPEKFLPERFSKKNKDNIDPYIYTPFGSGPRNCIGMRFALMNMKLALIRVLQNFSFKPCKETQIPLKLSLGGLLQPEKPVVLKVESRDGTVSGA
Sequence of CYP3A4 (P16435 2-677 partner): as the sequence (P16435 2-677 partner) above

SMILES	activity at 0.1 µM [1]	activity at 0.25 µM [2]
CC(=O)N1CCN(c2ccc(OC[C@H]3CO[C@](Cn4ccnc4)(c4ccc(Cl)cc4Cl)O3)cc2)CC1 (relative stereo) [ketoconazole]	< 40%	–
Nc1ccc(S(=O)(=O)Nc2ccnn2-c2ccccc2)cc1 [sulfaphenazole]	–	~50%
